Data from US4869895A, “Radiolabeled benzazepine” (Hoffmann-La Roche Inc., priority 1988, dated 1989).

Tests used:
[1] = biological target: benzodiazepine (BZ) receptor; test: in vitro displacement: prevention of the binding of the compound of formula I; set-up: species or system rat (male, Sprague-Dawley); conditions: rat cerebral cortical tissue; given in words only
[2] = tested on: BZ receptors in the brain; test: in vivo binding of the compound of formula I in mouse cerebral cortex; set-up: species or system mouse (male, ICR); conditions: mice, tail vein injection
Description: In vivo binding of the compound of formula I was determined according to the following procedures. Mice (male, 30 g ICR, Hilltop Farms) were injected via the tail vein with the compound of formula I. Ten or 30 minutes later, the mice were killed, the cerebral cortices of the brains were dissected solubilized, and the radioactivity was determined using standard methods. In order to determine nonspecific binding, some mice were pretreated with 5 mg/kg clonazepam (30 min ip). Specific/nonspecific binding ratios in cerebral cortex were about 2 at 10 minutes. The tissues in these tests were assayed directly without first homogenizing and washing them to reduce nonspecific binding. Therefore, the ratios were true in vivo ratios. Radioactivity was low and specific binding was negligible at 30 minutes.

[3] = tested on: benzodiazepine (BZ) receptor; test: in vitro benzodiazepine receptor binding of the compound of formula I (saturation, rat cerebral cortical tissue); set-up: species or system rat (male, Sprague-Dawley); conditions: for Bmax / Kd: 60 min incubation, pH 7.7; for Ratio (Specific/nonspecific): concentration of the compound of formula I at Kd, nonspecific with 10^-6 M clonazepam

In the case of CCOC(=O)c1ncn2c1CN(C)C(=O)c1cc(F)ccc1-2 [Ethyl-8-fluoro-5,6-dehydro-5-methyl-6-oxo-4H-imidazol-[1,5-a]-1,4[benzodiazepine-3-carboxylate]], the “Ki, prevention of binding of the compound of formula I” value (from here on “Ki, prevention”) [1] is reported as “in the nM range”.

O=C1CN=C(c2ccccc2Cl)c2cc([N+](=O)[O-])ccc2N1 [clonazepam] was tested, and the “Ki, prevention” value [1] was “in the nM range”.

[3H]c1cc(Cl)cc2c1C1=C(CN=C2c2ccccc2Cl)C(=O)NC1 [compound of formula I, 8-Chloro-6-(2-chlorophenyl)-1,4-dihydropyrrolo-[3,4-d][2]-10-t-benzazepin-3(2H)-one] was tested, and the “Specific/nonspecific binding ratio in cerebral cortex” value ([2]; 10 minutes, nonspecific: 5 mg/kg clonazepam (30 min ip), tissue not homogenized or washed) was “about 2”, the “Radioactivity in cerebral cortex” value ([2]; 30 minutes) was “low” and the “specific binding in cerebral cortex” value ([2]; 30 minutes) was “negligible”. For the same compound, the Bmax ([3]; 0 °C) was 1.36 × 10^-10 mol/mg wet weight, the Kd ([3]; 0 °C) was 0.18 ± 0.05 nM and the “Ratio (Specific/nonspecific)” value ([3]; 0 °C) was 12. For the same compound, the “specific to nonspecific ratios (FIG. 1)” value ([3]; 37 °C, 0.01 to 10 nM, over a relatively large range of concentrations) was “high”, the Bmax ([3]; 37 °C) was 1.22 × 10^-10 mol/mg wet weight and the Kd ([3]; 37 °C) was 0.82 ± 0.03 nM. For the same compound, the “Ratio (Specific/nonspecific)” value ([3]; 37 °C) was 4 and the “affinity and selectivity for BZ receptors in the brain” value ([3]; summary statement) was “high affinity and is a selective ligand for BZ receptors in the brain”.

With Cc1ncc2n1-c1ccc(Cl)cc1C(c1ccccc1F)=NC2 [midazolam] the “Ki, prevention” value [1] was “in the nM range”.
